Reference: patent US20090311237A1, “Combination therapy using a soluble hyaluronidase and a bisphosphonate” (priority 2008, published 2009)
Like-named read-outs stand apart in the source and are kept apart here.

Assay: Phase 1 Stage 1 clinical pharmacokinetics of SC ZA co-administered with rHuPH20
Type: in vivo, human
Conditions: human, serum, sc; for Tmax: read-out: Tmax
Procedure: A pharmacokinetic study of zoledronic acid (ZA) co-administered with rHuPH20 in human subjects was conducted. The primary objective of the study was to determine the bioavailability of zoledronic acid dosed via subcutaneous (SC) co-administration with human recombinant hyaluronidase PH20 (rHuPH20). […] The patients were administered the prescribed dosage formulations as follows: Cohorts 1-5 were administered a single subcutaneous infusion in a dosage volume of 100 ml at a rate of 3 mL/min. […] The dosing solution is administered via needle or catheter into the SC space of the left anterior thigh (midway between the anterior iliac crest and the cephalad border of the patella). For cohorts 1-5, the dosing solutions were administered by a controlled rate infusion pump at approximately 3 mL/minute. […] The dosing solutions were administered by syringe push bolus injection. […] Serum concentration of ZA was determined using a qualified LC-MS-MS assay after derivatization with diazomethane (Zhu, L S et al. (2006) Rapid Commun. […] The assay range was from 2.0 to 400 ng/mL with a lower limit of quantitation (LLOQ) at 2.0 ng/mL. […] Non-compartmental analysis was used for derivation of primary and secondary pharmacokinetic (PK) parameters. […] Summary statistics (mean, standard deviation, and median) were calculated using JMP or Microsoft Excel.

[1] = 0.0791 mg/kg, Subj 37, ZA 0.0791 mg/kg SC, inf 0.556 hr, PH20 24000 U
[2] = 0.0794 mg/kg, Subj 74, ZA 0.0794 mg/kg SC, inf […], PH20 6000 U
[3] = 0.082 mg/kg, Subj 63, ZA 0.0820 mg/kg SC, inf […], PH20 6000 U
[4] = 0.0877 mg/kg, Subj 46, ZA 0.0877 mg/kg SC, inf 0.276 hr, PH20 12000 U
[5] = ZA 0.25 mg SC + 24000 U rHuPH20, individual subjects
[6] = ZA 0.25 mg SC + 24000 U rHuPH20, mean, n=3
[7] = ZA 0.25 mg SC + 24000 U rHuPH20, median, n=3
[8] = ZA 0.5 mg SC + 24000 U rHuPH20, individual subjects
[9] = ZA 0.5 mg SC + 24000 U rHuPH20, mean, n=3
[10] = ZA 0.5 mg SC + 24000 U rHuPH20, median, n=3
[11] = ZA 1 mg SC + 24000 U rHuPH20, individual subjects

In the case of `O=P(O)(O)C(O)(Cn1ccnc1)P(=O)(O)O` [ZA, 1-hydroxy-2-(1H-imidazol-1-yl)ethylidene-1,1-bisphosphonic acid], the AUC(0-t) (0.0791 mg/kg, AUC (0-12 h), Subj 37, ZA 0.0791 mg/kg SC, inf 0.556 hr, PH20 24000 U) is reported as 0.499 µg·h/mL, the AUC(0-t) (0.0791 mg/kg, AUC (0-24 h), Subj 37, ZA 0.0791 mg/kg SC, inf 0.556 hr, PH20 24000 U) is reported as 0.536 µg·h/mL and the AUC(0-t) (0.0791 mg/kg, AUC (0-48 h), Subj 37, ZA 0.0791 mg/kg SC, inf 0.556 hr, PH20 24000 U) is reported as 0.578 µg·h/mL. The Cmax [1] was 0.131 µg/mL, the AUC(0-inf) (0.0791 mg/kg, Subj 37, ZA 0.0791 mg/kg SC, inf 0.556 hr, PH20 24000 U, read-out: AUC (0-inf)) was 0.62 µg·h/mL and the Tmax [1] was 0.81 h. For the same molecule, the AUC(0-t) (0.0794 mg/kg, AUC (0-12 h), Subj 74, ZA 0.0794 mg/kg SC, inf […], PH20 6000 U) was 0.426 µg·h/mL, the AUC(0-t) (0.0794 mg/kg, AUC (0-24 h), Subj 74, ZA 0.0794 mg/kg SC, inf […], PH20 6000 U) was 0.467 µg·h/mL and the AUC(0-t) (0.0794 mg/kg, AUC (0-48 h), Subj 74, ZA 0.0794 mg/kg SC, inf […], PH20 6000 U) was 0.509 µg·h/mL. It also gave a Cmax [2] of 0.12 µg/mL, an AUC(0-inf) (0.0794 mg/kg, Subj 74, ZA 0.0794 mg/kg SC, inf […], PH20 6000 U, read-out: AUC (0-inf)) of 0.555 µg·h/mL and a Tmax [2] of 0.75 h. The AUC(0-t) (0.082 mg/kg, AUC (0-12 h), Subj 63, ZA 0.0820 mg/kg SC, inf […], PH20 6000 U) was 0.497 µg·h/mL, the AUC(0-t) (0.082 mg/kg, AUC (0-24 h), Subj 63, ZA 0.0820 mg/kg SC, inf […], PH20 6000 U) was 0.559 µg·h/mL and the AUC(0-t) (0.082 mg/kg, AUC (0-48 h), Subj 63, ZA 0.0820 mg/kg SC, inf […], PH20 6000 U) was 0.613 µg·h/mL. It also gave a Cmax [3] of 0.167 µg/mL, an AUC(0-inf) (0.082 mg/kg, Subj 63, ZA 0.0820 mg/kg SC, inf […], PH20 6000 U, read-out: AUC (0-inf)) of 0.662 µg·h/mL and a Tmax [3] of 0.5 h. For the same molecule, the AUC(0-t) (0.0877 mg/kg, AUC (0-12 h), Subj 46, ZA 0.0877 mg/kg SC, inf 0.276 hr, PH20 12000 U) was 0.61 µg·h/mL, the AUC(0-t) (0.0877 mg/kg, AUC (0-24 h), Subj 46, ZA 0.0877 mg/kg SC, inf 0.276 hr, PH20 12000 U) was 0.656 µg·h/mL and the AUC(0-t) (0.0877 mg/kg, AUC (0-48 h), Subj 46, ZA 0.0877 mg/kg SC, inf 0.276 hr, PH20 12000 U) was 0.706 µg·h/mL. The Cmax [4] was 0.213 µg/mL, the AUC(0-inf) (0.0877 mg/kg, Subj 46, ZA 0.0877 mg/kg SC, inf 0.276 hr, PH20 12000 U, read-out: AUC (0-inf)) was 0.747 µg·h/mL and the Tmax [4] was 0.78 h. For the same molecule, the MRT (0.5 mg, ZA 0.5 mg, SC […] infusion, 100 mL, 3 mL/min, 24000 Units rHuPH20, extrapolated to ∞, individual subjects, read-out: SC MRT) was 3.19 h, the MRT (1 mg, ZA 1 mg, SC […] infusion, 100 mL, 3 mL/min, 24000 Units rHuPH20, extrapolated to ∞, individual subjects, read-out: SC MRT) was 6.93 h and the MRT (2 mg, ZA 2 mg, SC […] infusion, 100 mL, 3 mL/min, 24000 Units rHuPH20, extrapolated to ∞, individual subjects, read-out: SC MRT) was 5.72 h. For the same molecule, the MRT (5 mg, ZA 5 mg, SC […] infusion, 100 mL, 3 mL/min, 24000 Units rHuPH20, extrapolated to ∞, individual subjects, read-out: SC MRT) was 10.9 h, the AUC(0-t) (AUC (0-12h), ZA 0.25 mg SC + 24000 U rHuPH20, individual subjects) was 0.0297 µg·h/mL and the AUC(0-t) (AUC (0-12h), ZA 0.25 mg SC + 24000 U rHuPH20, mean, n=3) was 0.0295 µg·h/mL. It also gave an AUC(0-t) (AUC (0-12h), ZA 0.25 mg SC + 24000 U rHuPH20, median, n=3) of 0.0295 µg·h/mL, an AUC(0-t) (AUC (0-12h), ZA 0.5 mg SC + 24000 U rHuPH20, individual subjects) of 0.0608 µg·h/mL and an AUC(0-t) (AUC (0-12h), ZA 0.5 mg SC + 24000 U rHuPH20, mean, n=3) of 0.0632 µg·h/mL. It also gave an AUC(0-t) (AUC (0-12h), ZA 0.5 mg SC + 24000 U rHuPH20, median, n=3) of 0.0624 µg·h/mL, an AUC(0-t) (AUC (0-12h), ZA 1 mg SC + 24000 U rHuPH20, individual subjects) of 0.103 µg·h/mL and an AUC(0-t) (AUC (0-12h), ZA 1 mg SC + 24000 U rHuPH20, mean, n=3) of 0.115 µg·h/mL. It also gave an AUC(0-t) (AUC (0-12h), ZA 1 mg SC + 24000 U rHuPH20, median, n=3) of 0.104 µg·h/mL, an AUC(0-t) (AUC (0-12h), ZA 2 mg SC + 24000 U rHuPH20, individual subjects) of 0.218 µg·h/mL and an AUC(0-t) (AUC (0-12h), ZA 2 mg SC + 24000 U rHuPH20, mean, n=3) of 0.223 µg·h/mL. For the same molecule, the AUC(0-t) (AUC (0-12h), ZA 2 mg SC + 24000 U rHuPH20, median, n=3) was 0.218 µg·h/mL, the AUC(0-t) (AUC (0-12h), ZA 5 mg SC + 24000 U rHuPH20, individual subjects) was 0.499 µg·h/mL and the AUC(0-t) (AUC (0-12h), ZA 5 mg SC + 24000 U rHuPH20, mean, n=3) was 0.517 µg·h/mL. For the same molecule, the AUC(0-t) (AUC (0-12h), ZA 5 mg SC + 24000 U rHuPH20, median, n=3) was 0.499 µg·h/mL, the CL/F [5] was 0.148 L/h/kg and the Cmax [5] was 0.00684 µg/mL. The AUC(0-inf) (ZA 0.25 mg SC + 24000 U rHuPH20, individual subjects, read-out: AUC (0-∞)) was 0.0308 µg·h/mL, the MRT (ZA 0.25 mg SC + 24000 U rHuPH20, individual subjects, read-out: MRT) was 2.93 h and the Tmax [5] was 1.06 h. The Vd/F (ZA 0.25 mg SC + 24000 U rHuPH20, individual subjects, read-out: Vss/F) was 0.435 L/kg, the Vd/F (ZA 0.25 mg SC + 24000 U rHuPH20, individual subjects, read-out: Vz/F) was 0.402 L/kg and the CL/F [6] was 0.12 L/h/kg. It also gave a Cmax [6] of 0.00675 µg/mL, an AUC(0-inf) (ZA 0.25 mg SC + 24000 U rHuPH20, mean, n=3, read-out: AUC (0-∞)) of 0.0309 µg·h/mL and an MRT (ZA 0.25 mg SC + 24000 U rHuPH20, mean, n=3, read-out: MRT) of 3.5 h. The Tmax [6] was 1.31 h, the Vd/F (ZA 0.25 mg SC + 24000 U rHuPH20, mean, n=3, read-out: Vss/F) was 0.411 L/kg and the Vd/F (ZA 0.25 mg SC + 24000 U rHuPH20, mean, n=3, read-out: Vz/F) was 0.364 L/kg. For the same molecule, the CL/F [7] was 0.108 L/h/kg, the Cmax [7] was 0.00684 µg/mL and the AUC(0-inf) (ZA 0.25 mg SC + 24000 U rHuPH20, median, n=3, read-out: AUC (0-∞)) was 0.0308 µg·h/mL. It also gave an MRT (ZA 0.25 mg SC + 24000 U rHuPH20, median, n=3, read-out: MRT) of 3.37 h, a Tmax [7] of 1.31 h and a Vd/F (ZA 0.25 mg SC + 24000 U rHuPH20, median, n=3, read-out: Vss/F) of 0.433 L/kg. It also gave a Vd/F (ZA 0.25 mg SC + 24000 U rHuPH20, median, n=3, read-out: Vz/F) of 0.363 L/kg, an MRT (ZA 0.25 mg, SC […] infusion, 100 mL, 3 mL/min, 24000 Units rHuPH20, extrapolated to ∞, individual subjects, read-out: SC MRT) of 3.37 h and a CL/F [8] of 0.141 L/h/kg. For the same molecule, the Cmax [8] was 0.0153 µg/mL, the AUC(0-inf) (ZA 0.5 mg SC + 24000 U rHuPH20, individual subjects, read-out: AUC (0-∞)) was 0.0625 µg·h/mL and the MRT (ZA 0.5 mg SC + 24000 U rHuPH20, individual subjects, read-out: MRT) was 3.19 h. It also gave a Tmax [8] of 0.81 h, a Vd/F (ZA 0.5 mg SC + 24000 U rHuPH20, individual subjects, read-out: Vss/F) of 0.451 L/kg and a Vd/F (ZA 0.5 mg SC + 24000 U rHuPH20, individual subjects, read-out: Vz/F) of 0.456 L/kg. It also gave a CL/F [9] of 0.125 L/h/kg, a Cmax [9] of 0.0155 µg/mL and an AUC(0-inf) (ZA 0.5 mg SC + 24000 U rHuPH20, mean, n=3, read-out: AUC (0-∞)) of 0.065 µg·h/mL. For the same molecule, the MRT (ZA 0.5 mg SC + 24000 U rHuPH20, mean, n=3, read-out: MRT) was 3.26 h, the Tmax [9] was 1.14 h and the Vd/F (ZA 0.5 mg SC + 24000 U rHuPH20, mean, n=3, read-out: Vss/F) was 0.406 L/kg. The Vd/F (ZA 0.5 mg SC + 24000 U rHuPH20, mean, n=3, read-out: Vz/F) was 0.407 L/kg, the CL/F [10] was 0.131 L/h/kg and the Cmax [10] was 0.0153 µg/mL. It also gave an AUC(0-inf) (ZA 0.5 mg SC + 24000 U rHuPH20, median, n=3, read-out: AUC (0-∞)) of 0.0644 µg·h/mL, an MRT (ZA 0.5 mg SC + 24000 U rHuPH20, median, n=3, read-out: MRT) of 3.24 h and a Tmax [10] of 1.31 h. It also gave a Vd/F (ZA 0.5 mg SC + 24000 U rHuPH20, median, n=3, read-out: Vss/F) of 0.423 L/kg, a Vd/F (ZA 0.5 mg SC + 24000 U rHuPH20, median, n=3, read-out: Vz/F) of 0.428 L/kg and a CL/F [11] of 0.143 L/h/kg. It also gave a Cmax [11] of 0.0301 µg/mL and an AUC(0-inf) (ZA 1 mg SC + 24000 U rHuPH20, individual subjects, read-out: AUC (0-∞)) of 0.122 µg·h/mL.
